Test results taken from US6593342B1, “Pharmaceutical compositions comprising 2-quinolones” (Laboratoire L. Lafon, priority 1998, dated 2003).

Test system: clonogenic cells
Assay: Clonogenic test, overall statement
Assay type: cell-based
Conditions: in words
Source text: 1—Interaction (Stimulation or Inhibition of Proliferation) With the Generation of Clonogenic Cells (Clonogenic Test)
The test used is that described by Hamburger et al. (Science, 1977; 197, 461-463) and Salmon et al. (New England J. Med., 298, 1321-1327). A cell is considered clonogenic if it has the capacity to proliferate and to give rise to a cell colony. “Human tumor stem cells” are the cells which are the source of the neoplastic cells which constitute a given tumor. These tumor stem cells are responsible for the relapse processes which may be observed after surgical resection of primary tumors and are also responsible for the formation of metastases. […]
The influence of the compounds of formulae (I) and (Ia) on the growth of the cell colonies obtained by culturing, for example, the mammalian tumor lines MCF7 and MXT and the colorectal line HT-29 on the semi-liquid culture medium known as “soft agar” was measured. […]
The tumor cell lines studied are maintained in culture in 25 cm^2 falcon dishes. […] The percentage of live cells is determined after staining with trypan blue. […] After fixing for 24 hours, the formalin is evaporated off and the number of stained cell colonies, thus consisting of metabolically active cells, and whose surface area is greater than 100 μm^2, is determined using an inverted microscope. […]

Row | SMILES | effect on the average number of clones of clonogenic cells relative to the reference situation
1 | CCN(CC)C(=O)CCn1c(=O)c(-c2ccc(OC)cc2)cc2c(OC)cc(OC)cc21 [CRL8283, N,N-Diethyl-3-[5,7-dimethoxy-3-(4-methoxy-phenyl)-2-oxo-1,2-dihydro-1-quinolinyl]propanamide] | reduce
2 | CCN(CC)C(=O)Cn1c(=O)c(-c2ccc(OC)cc2)cc2c(OC)cc(OC)cc21 [CRL8315, N,N-Diethyl-2-[5,7-dimethoxy-3-(4-methoxy-phenyl)-2-oxo-1,2-dihydro-1-quinolinyl]acetamide] | increase
